Values of other authors as cited in publication PMC13092032, “Unlocking the potential of alkaline polymethacrylates via ionic crosslinking in amorphous solid dispersions” (International Journal of Pharmaceutics: X, 2026).

Details: Table 2; no method or source printed

SMILES | Log P
Cc1ccc(-c2cc(C(F)(F)F)nn2-c2ccc(S(N)(=O)=O)cc2)cc1 [Celecoxib] | 3.5
O=C1Nc2ccc(Cl)cc2[C@@](C#CC2CC2)(C(F)(F)F)O1 [Efavirenz] | 4.7
